Usually LD50 stands for the dose expected to kill half of the subjects tested.

The results in this text go back to patent US4551472A, “Unsymmetrical bis-carbamate compounds” (priority 1984, dated 1985).

In one series the test system is Tom. The series can be described thus: Phytotoxicity Test, tomato. The note with it: 2500 ppm spray, ten days.
The subject of a further series is Soy. The series can be described thus: Phytotoxicity Test, soy. As to conditions: 2500 ppm spray, ten days.
Another series relates to Corn. Nature of the series: Phytotoxicity Test, corn. As to conditions: 2500 ppm spray, ten days.
For the next series, the system named is Cotton. The series can be described thus: Phytotoxicity Test, cotton. The note with it: 2500 ppm spray, ten days.
Series [1] concerns root-knot nematode, Meloidogyne incognita var. acrita. Nature of the series: Nematocide Test. Note: key: 1: severe galling, equal to untreated plants; 2: moderate galling; 3: light galling; 4: very light galling; 5: no galling, perfect control. Type of series: in vivo. The note with it: 3.33 m.g. per jar; cucumber, approximately 3 weeks. The method, then:
The test organism used was the infective migratory larvae of the root-knot nematode, Meloidogyne incognita var. acrita, reared in the greenhouse on roots of cucumber plants. Infected plants were removed from the culture, and the roots are chopped very finely. A small amount of this inoculum was added to a pint jar containing approximately 180 cc. of soil. The jars were capped and incubated for one week at room temperature. During this period eggs of the nematode were hatched, and the larval forms migrated into the soil.
Ten ml. of the test formulation were added to each of the two jars for each dosage tested. Following the addition of chemical, the jars were capped, and the contents thoroughly mixed on a ball mill for 5 minutes.
The test compounds were formulated by a standard procedure of solution in acetone addition of an emulsifier, and dilution with water. Primary screening tests were conducted at 3.33 m.g. of the test compound per jar.
The jars were left capped at room temperature for a period of 48 hours, and the contents then transferred to 3 inch pots. Subsequently, the pots were seeded to cucumber as an indicator crop and placed in the greenhouse where they were cared for in the normal fashion for approximately 3 weeks.
The cucumber plants were then taken from the pots, the soil removed from the roots; and the amount of galling visually rated.
In the test for activity against nematodes (nem) activity was rated as follows: […]

A further series relates to Bean. The series can be described thus: Phytotoxicity Test, bean. The note with it: 2500 ppm spray, ten days.
The nature of series [2]: Mammalian Toxicity, peroral toxicity to rat. As to conditions: in vivo, po, read-out: A.O. Rat LD50. Type of series: in vivo. The method, then: Certain compounds were also evaluated to determine their peroral toxicity to mammals by conventional methods. The representative animal selected for this experiment was the rat.

A value given as a limit tells only on which side of the number the result lay.

Description for Bean: (§1) Experiments were also conducted to determine the phytotoxicity of representative compounds with respect to healthy fresh plants. […] The test plants were sprayed in accordance with the procedure described above for the Mite Foliage Spray Test so as to deliver approximately 100 milliliters of test solution to the leaves of each plant tested. The sprayed plants and controls were set aside for approximately one hour to allow the foliage to dry and were then placed in the greenhouse. After ten days the plants were visually inspected to determine the extent of foliage injury. A rating of 1 indicates no perceptible injury; 5 indicates the plant was dead and ratings of 2, 3 and 4 indicate intermediate degrees of injury based upon the number and extent to which leaves were injured.
Description for Corn: as §1
Description for Cotton: as §1
Description for Soy: as §1
Description for Tom: as §1

Take `CSC(C)=NOC(=O)N(C)SN(C)C(=O)Oc1ccc(C(C)(C)C)cc1` [IX, N-[1-Methylthioacetaldehyde O-(N-methylcarbamoyl)oxime]N-[4-tert-butylphenyl-(N-methylcarbamoyloxy)]sulfide]: the “Phytotoxicity: Tom” value with Tom worked out at 1. Further, in the series on Soy, the “Phytotoxicity: Soy” value was determined as 1. Also, the “Phytotoxicity: Corn” value in the series with Corn came to 1. Moreover, in the series on Cotton, the “Phytotoxicity: Cotton” value is 1. In addition, the “Biological Activity: Nem (nematode, galling rating)” value (“Biological Activity: Nem” below) in series [1] came out at 3. Besides, the “Phytotoxicity: Bean” value with Bean is on record as 1. Besides, the LD50 in series [2] was determined as 226 mg/kg.

Consider `CSC(C)=NOC(=O)N(C)SN(C)C(=O)Oc1ccc(Oc2ccccc2)cc1` [XXXIV], for which the “Phytotoxicity: Tom” value in the series on Tom amounted to 1. Besides, in the series on Soy, the “Phytotoxicity: Soy” value is given as 1. Besides, the “Phytotoxicity: Corn” value in the series on Corn was determined as 1. Besides, the “Phytotoxicity: Cotton” value in the series on Cotton worked out at 1. Also, the “Phytotoxicity: Bean” value in the series with Bean is recorded as 1. Besides, the LD50 in series [2] was over 640 mg/kg.

In the case of `CN(SN(C)C(=O)Oc1cccc2ccccc12)C(=O)ON=C1CSCCS1` [XXII, N-[2-O-(N-methylcarbamoyl)oximino-1,4-dithiane]N-[1-naphthyl-(N-methylcarbamoyloxy)]sulfide], the “Phytotoxicity: Tom” value with Tom was 1. Moreover, the “Phytotoxicity: Soy” value in the series with Soy was 2. Besides, the “Phytotoxicity: Corn” value in the series with Corn amounted to 1. Further, the “Phytotoxicity: Cotton” value in the series on Cotton was 1. For the same molecule, the “Biological Activity: Nem” value in series [1] is given as 4. The “Phytotoxicity: Bean” value in the series on Bean is reported as 1. Also, in series [2], the LD50 worked out at 453 mg/kg.

On to `CCOC(=O)C(=NOC(=O)N(C)SN(C)C(=O)ON=C(C)SC)SC` [XIII, N-[1-Methylthioacetaldehyde O-(N-methylcarbamoyl)oxime]N-[1-methylthio-1-ethoxycarbonylformaldehyde O-(N-methylcarbamoyl)oxime]sulfide], for which the “Phytotoxicity: Tom” value in the series with Tom was 1. The “Phytotoxicity: Soy” value in the series on Soy amounted to 2. The “Phytotoxicity: Corn” value in the series on Corn is listed as 1. Further, the “Phytotoxicity: Cotton” value in the series with Cotton came out at 1. For the same molecule, the “Biological Activity: Nem” value in series [1] is 3. Moreover, the “Phytotoxicity: Bean” value in the series with Bean worked out at 1. Moreover, in series [2], the LD50 was 160 mg/kg.

For the molecule `CSC(C)=NOC(=O)N(C)SN(C)C(=O)ON=C1CSCCS1` [Example II], in the series on Tom, the “Phytotoxicity: Tom” value is 1. In addition, in the series with Soy, the “Phytotoxicity: Soy” value is 1. Further, in the series with Corn, the “Phytotoxicity: Corn” value came out at 1. Further, the “Phytotoxicity: Cotton” value in the series on Cotton is 1. Moreover, the “Biological Activity: Nem” value in series [1] turned out to be 5. For the same molecule, the “Phytotoxicity: Bean” value with Bean was determined as 1. In addition, in series [2], the LD50 stood at 190 mg/kg.

On to `CSC(C)=NOC(=O)N(C)SN(C)C(=O)Oc1ccc([N+](=O)[O-])cc1` [XII, N-[1-Methylthioacetaldehyde O-(N-methylcarbamoyl)oxime]N-[1-(N-methylcarbamoyloxy)-4-nitrobenzene]sulfide], for which the “Phytotoxicity: Tom” value in the series with Tom was found to be 1. Further, the “Phytotoxicity: Soy” value with Soy is 1. Further, the “Phytotoxicity: Corn” value in the series on Corn amounted to 1. Moreover, the “Phytotoxicity: Cotton” value in the series on Cotton is 1. Besides, the “Biological Activity: Nem” value in series [1] is listed as 1. Besides, the “Phytotoxicity: Bean” value with Bean was 1. The LD50 in series [2] is 453 mg/kg.

In the case of `CSC(C)=NOC(=O)N(C)SN(C)C(=O)Oc1cc(C)c(C)c(C)c1` [XVIII, N-[1-Methylthioacetaldehyde O-(N-methylcarbamoyl)oxime]N-[3,4,5-trimethylphenyl-(N-methylcarbamoyloxy)]sulfide], the “Phytotoxicity: Tom” value in the series on Tom is 1. In addition, the “Phytotoxicity: Soy” value with Soy turned out to be 1. The “Phytotoxicity: Corn” value with Corn stood at 1. Besides, the “Phytotoxicity: Cotton” value in the series on Cotton was 1. In addition, the “Biological Activity: Nem” value in series [1] is listed as 4. Moreover, the “Phytotoxicity: Bean” value in the series on Bean is listed as 1. Further, the LD50 in series [2] stood at 95.1 mg/kg.

As to `CN(SN(C)C(=O)ON=C1SC(C)(C)C(=O)N1C)C(=O)ON=C1CSCCS1` [Example III, N-[2-(O-(N-methylcarbamoyl)oximino]-1,4-dithiane]-N-[2-O-(N-methylcarbamoyl)oximino-3,5,5-trimethylthiazolidin-4-one]sulfide], the “Phytotoxicity: Tom” value in the series on Tom stood at 1. The “Phytotoxicity: Soy” value with Soy was found to be 2. Besides, the “Phytotoxicity: Corn” value in the series on Corn worked out at 2. The “Phytotoxicity: Cotton” value with Cotton is listed as 2. Also, the “Biological Activity: Nem” value in series [1] is 1. Also, the “Phytotoxicity: Bean” value with Bean is 1. In addition, the LD50 in series [2] stood at 160 mg/kg.

As to `CSC(C)=NOC(=O)N(C)SN(C)C(=O)Oc1ccc(C(C)C)cc1` [VIII, N-[1-Methylthioacetaldehyde O-(N-methylcarbamoyl)oxime]N-[4-isopropylphenyl-(N-methylcarbamoyloxy)]sulfide], the “Phytotoxicity: Tom” value in the series on Tom is given as 1. In the series with Soy, the “Phytotoxicity: Soy” value is 1. Further, the “Phytotoxicity: Corn” value in the series on Corn is recorded as 1. In addition, the “Phytotoxicity: Cotton” value with Cotton was 1. In addition, the “Biological Activity: Nem” value in series [1] is on record as 4. In addition, in the series on Bean, the “Phytotoxicity: Bean” value came out at 1. In series [2], the LD50 was found to be 160 mg/kg.

In the case of `CSC(C)=NOC(=O)N(C)SN(C)C(=O)Oc1ccccc1C1SCCS1` [XXXVI], the “Phytotoxicity: Tom” value in the series on Tom came to 1. Also, in the series with Soy, the “Phytotoxicity: Soy” value was 1. Also, the “Phytotoxicity: Corn” value with Corn turned out to be 1. For the same molecule, in the series on Cotton, the “Phytotoxicity: Cotton” value came out at 1. The “Biological Activity: Nem” value in series [1] turned out to be 4. Moreover, the “Phytotoxicity: Bean” value with Bean was determined as 1. Further, in series [2], the LD50 was determined as 50.4 mg/kg.

Turning to `CSC(C)=NOC(=O)N(C)SN(C)C(=O)Oc1cccc(C(C)C)c1` [XXVIII], the “Phytotoxicity: Tom” value in the series with Tom is given as 1. In the series with Soy, the “Phytotoxicity: Soy” value is 2. Further, in the series with Corn, the “Phytotoxicity: Corn” value came to 1. Besides, the “Phytotoxicity: Cotton” value in the series with Cotton was 2. In addition, the “Phytotoxicity: Bean” value in the series with Bean was determined as 1. For the same molecule, in series [2], the LD50 came to 40 mg/kg.

With `CSC(C)=NOC(=O)N(C)SN(C)C(=O)Oc1ccc(NC=O)c(C)c1` [XXI, N-[1-Methylthioacetaldehyde O-(N-methylcarbamoyl)oxime]N-[4-formylamino-3-methylphenyl-(N-methylcarbamoyloxy)]sulfide], in the series on Tom, the “Phytotoxicity: Tom” value turned out to be 1. The “Phytotoxicity: Soy” value with Soy was 1. Also, in the series with Corn, the “Phytotoxicity: Corn” value was 1. For the same molecule, the “Phytotoxicity: Cotton” value with Cotton was determined as 1. The “Biological Activity: Nem” value in series [1] is recorded as 4. The “Phytotoxicity: Bean” value in the series on Bean is recorded as 1.

With `CSC(C)=NOC(=O)N(C)SN(C)C(=O)Oc1ccc(-c2ccccc2)cc1` [XXXII], the “Phytotoxicity: Tom” value with Tom stood at 1. Moreover, the “Phytotoxicity: Soy” value with Soy is 1. Also, in the series on Corn, the “Phytotoxicity: Corn” value amounted to 1. For the same molecule, in the series on Cotton, the “Phytotoxicity: Cotton” value was 2. Moreover, the “Biological Activity: Nem” value in series [1] is 4. Moreover, the “Phytotoxicity: Bean” value in the series with Bean is reported as 2.

For `CSC(C)=NOC(=O)N(C)SN(C)C(=O)Oc1ccccc1OC(C)C` [XXXVIII], the “Phytotoxicity: Tom” value with Tom worked out at 1. The “Phytotoxicity: Soy” value in the series with Soy was determined as 2. Moreover, in the series on Corn, the “Phytotoxicity: Corn” value was determined as 1. The “Phytotoxicity: Cotton” value with Cotton is listed as 1. The “Phytotoxicity: Bean” value in the series with Bean was 1. Moreover, the LD50 in series [2] is 63.5 mg/kg.

As to `CSC(C)=NOC(=O)N(C)SN(C)C(=O)ON=C(C)C(=O)c1ccccc1` [XLI], in the series on Tom, the “Phytotoxicity: Tom” value was determined as 1. Besides, the “Phytotoxicity: Soy” value in the series on Soy came to 1. In the series with Corn, the “Phytotoxicity: Corn” value is given as 1. Moreover, in the series with Cotton, the “Phytotoxicity: Cotton” value is listed as 1. The “Biological Activity: Nem” value in series [1] worked out at 1. The “Phytotoxicity: Bean” value in the series on Bean is 1.

With `CSC(C)=NOC(=O)N(C)SN(C)C(=O)ON=C(SC)C(=O)N(C)C` [XI, N-[1-Methylthioacetaldehyde O-(N-methylcarbamoyl)oxime]N-[1-methylthio-N', N'-dimethylcarbamoylformaldehyde O-(N-methylcarbamoyl)oxime]sulfide], the “Phytotoxicity: Tom” value in the series with Tom is on record as 1. Further, the “Phytotoxicity: Soy” value in the series with Soy is given as 1. Further, the “Phytotoxicity: Corn” value in the series on Corn is 1. Further, the “Phytotoxicity: Cotton” value with Cotton was determined as 2. The “Phytotoxicity: Bean” value with Bean turned out to be 1. Moreover, the LD50 in series [2] came to 14.1 mg/kg.

Regarding `C#CCOC(=O)N(C)SN(C)C(=O)ON=C1SC(C)(C)C(=O)N1C` [IV, N-[N-methyl-N-propargyloxycarbonylamino]N-[3,5,5-trimethylthiazolidin-4-one-2 O-(N-methylcarbamoyl)oxime]sulfide], in the series on Tom, the “Phytotoxicity: Tom” value worked out at 2. Also, the “Phytotoxicity: Soy” value in the series on Soy was found to be 2. Besides, the “Phytotoxicity: Corn” value in the series with Corn is recorded as 1. In addition, the “Phytotoxicity: Cotton” value in the series on Cotton was 2. The “Biological Activity: Nem” value in series [1] was 1. For the same molecule, the “Phytotoxicity: Bean” value with Bean is given as 1.

For `CSC(C)=NOC(=O)N(C)SN(C)C(=O)ON=C1SCSCS1` [XL], in the series with Tom, the “Phytotoxicity: Tom” value was 1. In addition, the “Phytotoxicity: Soy” value in the series with Soy came out at 1. For the same molecule, the “Phytotoxicity: Corn” value with Corn amounted to 1. Further, the “Phytotoxicity: Cotton” value with Cotton is reported as 1. For the same molecule, the “Biological Activity: Nem” value in series [1] is on record as 5. For the same molecule, in the series on Bean, the “Phytotoxicity: Bean” value is reported as 1.
